The values that follow come from PubChem BioAssay AID206 (DTP/NCI, 2004).

The structures appear in SMILES notation. Several values for one entry are separate records, joined by “and”; a condition that tells them apart may be missing. Equal entries are not always repeated. Inconclusive results are not listed.

The test concerns nude mice, HT29 intrarenal xenograft, tumor weight T/C. As to the kind of experiment: NCI In Vivo Anticancer Drug Screen. Data for tumor model HT29;CX-1 Human Adenocarcinoma (MER+) (intrarenal inoculation) in NU/NU Swiss (nude) mice. The conditions noted are these: endpoint: mean tumor weight change, higher = larger tumour. The method, boiled down: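 Mice with transplanted tumors are dosed with compound while controls get vehicle only. Survival or tumor burden is then assessed per group, and the treated value is expressed relative to control.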

Where [1] appears, read: dose: 100.0 mg/kg/injection, schedule: Q01DX010 (sc), vehicle: Klucel (hydroxypropylcellulose) (HPC).
Setting [2] is: dose: 200.0 mg/kg/injection, schedule: Q01DX010 (sc), vehicle: Klucel (hydroxypropylcellulose) (HPC).
Where [3] appears, read: dose: 800.0 mg/kg/injection, schedule: Q01DX010 (sc), vehicle: Klucel (hydroxypropylcellulose) (HPC).
[4] abbreviates: dose: 50.0 mg/kg/injection, schedule: Q04DX004 (sc), vehicle: saline with Tween-80.
The mark [5] stands for this setting: dose: 200.0 mg/kg/injection, schedule: Q04DX004 (sc), vehicle: saline with Tween-80.
Setting [6] is: dose: 300.0 mg/kg/injection, schedule: Q04DX004 (sc), vehicle: saline with Tween-80.
[7] abbreviates: dose: 600.0 mg/kg/injection, schedule: Q04DX004 (sc), vehicle: saline with Tween-80.
Where [8] appears, read: dose: 1200.0 mg/kg/injection, schedule: Q04DX004 (sc), vehicle: saline with Tween-80.
[9] abbreviates: dose: 75.0 mg/kg/injection, schedule: Q04DX004 (sc), vehicle: saline with Tween-80.
Where [10] appears, read: dose: 150.0 mg/kg/injection, schedule: Q04DX004 (sc), vehicle: saline with Tween-80.
The mark [11] stands for this setting: dose: 100.0 mg/kg/injection, schedule: Q04DX004 (sc), vehicle: saline with Tween-80.
The mark [12] stands for this setting: dose: 75.0 mg/kg/injection, schedule: Q04DX004 (sc), vehicle: saline.
The mark [13] stands for this setting: dose: 150.0 mg/kg/injection, schedule: Q04DX004 (sc), vehicle: saline.
The mark [14] stands for this setting: dose: 50.0 mg/kg/injection, schedule: Q01DX010 (sc), vehicle: Klucel (hydroxypropylcellulose) (HPC).

`N#CC(C#N)=C/C=C/c1cccc([N+](=O)[O-])c1`: the T/C was 40 % of control under setting [1]; 38 % of control under setting [2]; 74 % of control (dose: 400.0 mg/kg/injection, schedule: Q01DX010 (sc), vehicle: Klucel (hydroxypropylcellulose) (HPC)); 61 % of control under setting [3].

Regarding `COc1ccc(OC)c(/C=C/c2ccnc3ccccc23)c1`, the T/C (dose: 100.0 mg/kg/injection, schedule: Q01DX010 (sc), vehicle: saline with Tween-80) was 92 % of control; the T/C (dose: 200.0 mg/kg/injection, schedule: Q01DX010 (sc), vehicle: saline with Tween-80) is 61 % of control; the T/C (dose: 400.0 mg/kg/injection, schedule: Q01DX010 (sc), vehicle: saline with Tween-80) is 91 % of control; the T/C (dose: 800.0 mg/kg/injection, schedule: Q01DX010 (sc), vehicle: saline with Tween-80) was 113 % of control.

As for `C/C=C/c1cc2c(c(=O)o1)C(=O)[C@@H](O)[C@H](C)O2`, the T/C reads like this: under setting [4], 107 % of control; under setting [5], 79 % of control.

With `Nc1nc(=S)c2ncn(C3CC(O)C(CO)O3)c2[nH]1` (stereo not drawn), the T/C (dose: 1.8 mg/kg/injection, schedule: Q04DX004 (sc), vehicle: saline with Tween-80) was 119 % of control; the T/C (dose: 3.75 mg/kg/injection, schedule: Q04DX004 (sc), vehicle: saline with Tween-80) was 105 % of control; the T/C (dose: 7.5 mg/kg/injection, schedule: Q04DX004 (sc), vehicle: saline with Tween-80) was 107 % of control; the T/C under setting [1] is 114 % of control.

For the compound `O=C(O)/C=C/C(=O)Nc1ccc(Cl)c(Cl)c1`, the T/C is, setting by setting: (dose: 50.0 mg/kg/injection, schedule: Q04DX004 (sc), vehicle: Klucel (hydroxypropylcellulose) (HPC)) 151 % of control; (dose: 100.0 mg/kg/injection, schedule: Q04DX004 (sc), vehicle: Klucel (hydroxypropylcellulose) (HPC)) 102 % of control; (dose: 200.0 mg/kg/injection, schedule: Q04DX004 (sc), vehicle: Klucel (hydroxypropylcellulose) (HPC)) 91 % of control.

On to `[I][Hg][CH2]C1COC([CH2][Hg][I])CO1` (stereo not drawn), for which the T/C reads like this: under setting [6], 54 % of control; under setting [7], 55 % of control; under setting [8], 57 % of control; (dose: 2400.0 mg/kg/injection, schedule: Q04DX004 (sc), vehicle: saline with Tween-80) 32 % of control.

With `O=C(C/C(=N\C(=S)Nc1cc(C(F)(F)F)ccc1Cl)NO)N1CCCC1`, the T/C is 51 % of control under setting [9], 49 % of control under setting [10], 80 % of control under setting [6] and 70 % of control under setting [7].

Consider `O=C1C=C[C@H](O)[C@@]2(CO)O[C@@H]12`, for which the T/C runs as follows: (dose: 6.25 mg/kg/injection, schedule: Q04DX004 (sc), vehicle: saline with Tween-80) 109 % of control; (dose: 12.5 mg/kg/injection, schedule: Q04DX004 (sc), vehicle: saline with Tween-80) 82 % of control.

With `O=C(O)CSc1c(Cl)c(=O)oc2ccc(Cl)cc12`, the T/C (dose: 300.0 mg/kg/injection, schedule: Q04DX004 (sc), vehicle: Klucel (hydroxypropylcellulose) (HPC)) is 99 % of control.

In the case of `CN(C=O)C(C(=O)Nc1cccc2c(OC(=O)C(N(C)C=O)(N(C)C=O)N(C)C=O)c(N=Nc3ccc(S(=O)(=O)Nc4nccs4)cc3)cc(N=Nc3ccc(S(=O)(=O)Nc4nccs4)cc3)c12)(N(C)C=O)N(C)C=O` (tested in a mixture with another compound), the T/C under setting [6] is 91 % of control, the T/C under setting [7] was 103 % of control and the T/C under setting [8] is 80 % of control.

Consider `C=C(NC(=O)C(=C)NC(=O)c1csc(C2=NC3c4csc(n4)C4NC(=O)c5csc(n5)C(C(C)(O)C(C)O)NC(=O)C5CSC(=N5)/C(=C/C)NC(=O)C(C(C)O)NC(=O)c5csc(n5)C3(CC2)NC(=O)C(C)NC(=O)C(=C)NC(=O)C(C)NC(=O)C(C(C)CC)NC2C=Cc3c(C(C)O)cc(nc3C2O)C(=O)OC4C)n1)C(N)=O` (stereo not drawn), for which the T/C by setting is: under setting [2], 34 % of control; under setting [3], 27 % of control and 49 % of control; (dose: 3200.0 mg/kg/injection, schedule: Q01DX010 (sc), vehicle: Klucel (hydroxypropylcellulose) (HPC)) 50 % of control.

As for `OCC1OC(n2cnc3c2NC=NC[C@H]3O)CC1O` (stereo partly drawn), the T/C was 168 % of control (dose: 1.0 mg/kg/injection, schedule: Q01DX010 (sc), vehicle: water) and 176 % of control (dose: 2.0 mg/kg/injection, schedule: Q01DX010 (sc), vehicle: water).

For the compound `Nc1nc2ccc(NCc3ccc(C(=O)NC(CCC(=O)O)C(=O)O)cc3)cc2c(=O)[nH]1` (stereo not drawn), the T/C by setting is: under setting [4], 36 % of control; under setting [11], 46 % of control and 50 % of control; under setting [5], 16 % of control and 29 % of control.

Take `Clc1ccc2nnnn2n1`: the T/C runs as follows: under setting [11], 114 % of control; under setting [5], 45 % of control.

Regarding `C=C/C(C)=C/[C@H](C)C(=O)C[C@H](O)CC1CC(=O)NC(=O)C1`, the T/C is 91 % of control under setting [10], 100 % of control under setting [6], 67 % of control under setting [7] and 63 % of control under setting [8].

With `CCOC(=O)CNC(=O)CCCCSc1ncnc2nc[nH]c12`, the T/C was 162 % of control (dose: 225.0 mg/kg/injection, schedule: Q04DX004 (sc), vehicle: saline with Tween-80) and 103 % of control (dose: 450.0 mg/kg/injection, schedule: Q04DX004 (sc), vehicle: saline with Tween-80).

Regarding `CCCCCCCC(=O)[O][Hg][CH2]C1COC([CH2][Hg][O]C(=O)CCCCCCC)CO1` (stereo not drawn), the T/C was 110 % of control (dose: 37.5 mg/kg/injection, schedule: Q04DX004 (sc), vehicle: saline with Tween-80); 120 % of control under setting [9]; 47 % of control under setting [10]; 51 % of control under setting [6].

`O=[n+]1c2ccccc2n([O-])c2ccccc21.[Cl][Ni][Cl]`: the T/C under setting [9] was 92 % of control and the T/C under setting [10] is 89 % of control.

With `COc1ccc2c(NCCCCCCNc3c4ccccc4nc4cc(OC)ccc34)c3ccccc3nc2c1`, the T/C (dose: 0.62 mg/kg/injection, schedule: Q01DX010 (sc), vehicle: lactic acid) was 87 % of control; the T/C (dose: 1.25 mg/kg/injection, schedule: Q01DX010 (sc), vehicle: lactic acid) was 73 % of control; the T/C (dose: 2.5 mg/kg/injection, schedule: Q01DX010 (sc), vehicle: lactic acid) is 71 % of control; the T/C (dose: 30.0 mg/kg/injection, schedule: Q01DX010 (sc), vehicle: lactic acid) was 71 % of control.

As for `Nc1ncnc2c1ncn2C1C=C(CO)C(O)C1O` (stereo not drawn), the T/C (dose: 3.75 mg/kg/injection, schedule: Q04DX004 (sc), vehicle: saline) is 76 % of control; the T/C (dose: 7.5 mg/kg/injection, schedule: Q04DX004 (sc), vehicle: saline) was 103 % of control; the T/C (dose: 15.0 mg/kg/injection, schedule: Q04DX004 (sc), vehicle: saline) was 81 % of control.

Take `C=C(C)[C@]12CC(C)C34OC(/C=C\C=C\CCCCCCCCC)(O[C@@H]1[C@@H]3[C@@H]1O[C@]1(CO)[C@@H](O)[C@]1(O)C(=O)C(C)=C[C@@H]41)O2` (stereo partly drawn): the T/C by setting is: (dose: 0.38 mg/kg/injection, schedule: Q04DX004 (sc), vehicle: distilled water + alcohol) 73 % of control; (dose: 0.75 mg/kg/injection, schedule: Q04DX004 (sc), vehicle: distilled water + alcohol) 40 % of control; (dose: 1.5 mg/kg/injection, schedule: Q04DX004 (sc), vehicle: distilled water + alcohol) 63 % of control; (dose: 3.0 mg/kg/injection, schedule: Q04DX004 (sc), vehicle: distilled water + alcohol) 37 % of control.

Take `CCCCCCCCCCCCCCCCCCOCC(COP(=O)([O-])OCC[N+](C)(C)C)OC` (stereo not drawn): the T/C (dose: 37.5 mg/kg/injection, schedule: Q04DX004 (sc), vehicle: saline) was 98 % of control; the T/C under setting [12] is 77 % of control; the T/C under setting [13] was 50 % of control.

For `C=CCOCC1CO1` (stereo not drawn), the T/C is, setting by setting: under setting [12], 120 % of control; under setting [13], 100 % of control; (dose: 300.0 mg/kg/injection, schedule: Q04DX004 (sc), vehicle: saline) 54 % of control.

`CS(=O)(=O)OCCN(CCOS(C)(=O)=O)c1ccc(C=Nc2ccc(-c3csc(COc4ccccc4)n3)cc2)cc1`: the T/C runs as follows: under setting [14], 72 % of control; under setting [1], 44 % of control.

As for `C[N+](C)(C)c1cc2c(nn1)Nc1ccccc1S2`, the T/C runs as follows: under setting [14], 25 % of control; under setting [1], 85 % of control.

As to `COC(=Nc1ccccc1)SSC(C)C`, the T/C reads like this: under setting [10], 104 % of control; under setting [6], 118 % of control; under setting [7], 117 % of control; under setting [8], 117 % of control.
